Data from publication PMC11056994, “Potentiating Activity of GmhA Inhibitors on Gram-Negative Bacteria” (Journal of Medicinal Chemistry, 2024).
Where two headings read alike, the source gives them in different places.

Experiments:
Type in all cases: cell-based
[1] = test system: K. pneumoniae S3 LPS heptosylation; assay: LPS heptosylation inhibition in clinical isolate K. pneumoniae S3; details: Klebsiella pneumoniae, read-out: EC50 of LPS heptosylation
Protocol: (§1) Compound 17 was also tested against clinical isolates of E. coli,[…], and K. pneumoniae for its ability to block LPS heptosylation (EC50). As detailed in Table 3, 17 in the presence of the UhpT inducer glucose-6-phosphate (100 μM) is a specific inhibitor of LPS heptosylation against various strains, including multiresistant clinical isolates expressing ESBL, AmpC, or NDM-1.
(§2) The compounds to be tested were prepared in deionized water/DMSO (50/50) solutions and added (25 μL) in sterile culture microtubes. The test bacterial isolate was isolated on tryptic soy agar (TSA) overnight. Isolated colonies were cultured in 10 mL of LB medium at 37 °C up to an OD of typically 0.15. These exponentially growing bacteria were finally diluted to 5 × 10^5 cfu/mL and added in each well (225 μL) for incubation with the compounds at 37 °C for approximately 5 h, up to an OD of ≈0.2–0.4. Some test compounds, e.g., phospho-sugars are actively transported into the bacterial cytosol via the phospho-sugar transporter UhpT (Figure S3). […] The resulting supernatant, containing LPS, was finally analyzed by SDS-PAGE electrophoresis. […] Gels were finally washed in deionized water, numerized with a Samsung PL51 camera, and analyzed by ImageJ software. […]

[2] = test system: E. coli S1 LPS heptosylation; assay: LPS heptosylation inhibition in clinical isolate E. coli S1; details: Escherichia coli; E. coli S1, ESBL; 100 μM glucose-6-phosphate; n = 1
Protocol: as §1, §2

E. coli C7 = assay: MIC of the compounds alone on E. coli C7; details: compound alone, n = 2, read-out: MIC E. coli C7
Protocol: Then, we investigated the cytotoxicity and the ability of such inhibitors to potentiate the antimicrobial activity of macrolide and rifamycin antibiotics.
(§3) The compound to be tested was diluted in 50 mM HEPES buffer (pH 7.4) from 10 mM stock solution in DMSO. Five microliters of compound dilution or buffer were distributed in a sterile clear round-bottom 96-well polystyrene microplate (Corning). Five microliters of serial 2-fold dilutions of reference antibiotics [Erythromycin (Fluka), Rifampicin (Fluka)] in DMSO were added. An exponentially growing preculture of E. coli C7 (O18:K1:H7) in LB was diluted to 10^4 cfu/mL and supplemented with 100 μM G6P, and 90 μL of this suspension were added to the microplates. After overnight incubation at 37 °C, the MIC of the antibiotics were determined for each test compound concentration as the lowest antibiotic concentration for which no bacterial pellet is visible without magnification.

[3] = test system: E. coli C7 (018:K1:H7) LPS biosynthesis; assay: Inhibition of bacterial LPS biosynthesis (silver-stained LPS SDS-PAGE); details: Escherichia coli; E. coli C7 LPS biosynthesis by SDS-PAGE; mean ± SD of 3 experiments for 17 and 24, n = 1 for others; read-out: EC50
Protocol: The compounds to be tested were prepared in deionized water/DMSO (50/50) solutions and added (25 μL) in sterile culture microtubes. The test bacterial isolate was isolated on tryptic soy agar (TSA) overnight. Isolated colonies were cultured in 10 mL of LB medium at 37 °C up to an OD of typically 0.15. These exponentially growing bacteria were finally diluted to 5 × 10^5 cfu/mL and added in each well (225 μL) for incubation with the compounds at 37 °C for approximately 5 h, up to an OD of ≈0.2–0.4. Some test compounds, e.g., phospho-sugars are actively transported into the bacterial cytosol via the phospho-sugar transporter UhpT (Figure S3). 2.5 μL portion of a 10 mM water solution of glucose-6-phosphate (G6P, 100 μM final concentration, from Sigma) was added in the culture tube in order to induce UhpT expression. LPS extraction: Bacterial cultures were normalized via OD determination, pelleted, and washed with 1 mL of phosphate-buffered-saline (PBS). The pellets were then denatured for 10 min at 95–100 °C in 50 μL of 0.2% sodium dodecyl sulfate (SDS), β-mercaptoethanol 1%, glycerol 36%, Tris 30 mM, pH 7.4, and bromophenol blue 0.001%. Samples were cooled down to room temperature, supplemented with 1.5 μL of proteinase K at 20 mg/mL, incubated for 1 h at 55 °C, and centrifuged for 30 min at 13,000 rpm at 25 °C. The resulting supernatant, containing LPS, was finally analyzed by SDS-PAGE electrophoresis. LPS SDS-PAGE electrophoresis: Polyacrylamide gels (16%/4% acrylamide for separation and concentration, respectively) were prepared, loaded with 8 μL of LPS extracts, and migrated. Silver staining: Gels were incubated overnight in 5% acetic acid/40% ethanol/deionized water, treated by 1% periodic acid/5% acetic acid for 15 min, washed 4 times for 10 min in deionized water, and finally incubated for 18 min in the dark in a silver nitrate solution composed of 56 mL of 0.1 M NaOH (56 mL), 33% aq ammonia (4 mL), 5% AgNO3 (45 mL), and deionized water (195 mL). Gels were then washed extensively in deionized water for 30 min and incubated for 10–15 min (up to LPS band appearance) in the revelation mix composed of 300 mL of deionized water (300 mL), 36.5% formaldehyde (0.3 mL, Fluka), and 2.3 M citric acid (0.1 mL). The revelation was stopped by incubating the gels in 10% acetic acid for 5 min. Gels were finally washed in deionized water, numerized with a Samsung PL51 camera, and analyzed by ImageJ software. The percentage of inhibition of LPS heptosylation was defined as the relative area of the Re-LPS band compared to the cumulated areas of Re-LPS and Core-LPS bands.

E. coli C7 (O18:K1:H7) [4] = assay: MIC determination of antibiotics combined with a GmhA inhibitor; details: 17 at 27 mg/L (100 μM), glucose-6-phosphate 100 μM, E. coli C7
Protocol: as §3

[5] = test system: E. cloacae S2 LPS heptosylation; assay: LPS heptosylation inhibition in clinical isolate E. cloacae S2; details: Enterobacter cloacae; E. cloacae S2, AmpC; 100 μM glucose-6-phosphate; n = 1
Protocol: as §1, §2

E. coli C7 (O18:K1:H7) [6] = assay: Time-kill kinetics of rifampicin in combination with compound 17
Protocol: Rifampicin (Fluka) was diluted in DMSO, and the compound to be tested was diluted in water from 50 mM stock solution in 50 mM HEPES buffer, pH 7.4. Ten microliter of DMSO was distributed in sterile 1.5 mL polypropylene microtubes (Eppendorf). 2.5 μL of compound dilution or water, 2.5 μL of Rifampicin or DMSO, 2.5 μL of 10 mM G6P in water (100 μM final concentration), and 230 μL of LB were added to the microtubes. E. coli C7 (O18:K1:H7) was grown in 5 mL of LB broth at 37 °C until mid-log phase. The suspension was then diluted in LB to obtain a 100× inoculum of 5 × 10^7 cfu/mL, 2.5 μL of which were added to each microtube (5 × 10^5 cfu/mL final inoculum). The microtubes were incubated at 37 °C, and aliquots of 10 μL were sampled at 0, 2, 4, 6, 8, and 24 h for bacterial enumeration in duplicate.

HepG2 cytotoxicity = details: human, HepG2 cells; n = 2
Protocol: HepG2 cells (LGC Promochem, ref HB-8065) in EMEM medium supplemented with fetal bovine serum (10%), Ampicillin (100 mg/L), and Streptomycin (100 mg/L) were plated on cell culture plates (Costar 3596, 2 × 10^4 cells/well) and incubated overnight at 37 °C in 5% CO2. The culture medium was then aspirated and replaced by supplemented EMEM (210 μL including 2% DMSO) containing dilutions of compounds. Plates were incubated overnight at 37 °C in 5% CO2. Cell viability was determined by the Celltiter Aqueous One Cell Proliferation Assay (G3581–80, Promega) according to the manufacturer’s recommendations, using a Multiskan absorption reader (490 nm).

O=CN(O)C[C@H](O)[C@H](O)[C@H](O)COP(=O)(O)O [Compound 17]
EC50 [1]: 21 µM
EC50 [2]: 21 µM
MIC (E. coli C7; Escherichia coli, C7): > 1000 µM
MIC (E. coli C7): >1000 µM
EC50 [3]: 20 ± 3 µM
potentiation of erythromycin (E. coli C7 (O18:K1:H7) [4]): 32 fold
potentiation of rifampicin (E. coli C7 (O18:K1:H7) [4]): 16 fold
EC50 [5]: 18 µM
effect on bacterial growth, compound alone (E. coli C7 (O18:K1:H7) [6]; 17 300 μM alone or rifampicin 1 mg/L alone): did not alter at all the bacterial growth
bacterial counts at 24 h (E. coli C7 (O18:K1:H7) [6]; 17 (300 μM) combined with rifampicin (1 mg/L), 24 h): no detectable counts
reduction of the bacterial inoculum (E. coli C7 (O18:K1:H7) [6]; 17 (300 μM) combined with rifampicin (1 mg/L), in less than 6 h): more than 3 log
CC50 (HepG2 cytotoxicity): > 1000 µM
